Columns and labels:
[1] = test system: recall of learned information; settings: two patients given bilateral electroconvulsive shock therapy (ECT); cited from earlier work
[2] = test system: learning and memory; settings: intranasal administration, young unimpaired human subjects, compared with placebo treatment; cited from earlier work
[3] = test system: amnesia produced by electroconvulsive shock; assay: reversal of electroconvulsive shock-induced amnesia, rats; type: in vivo
[4] = test system: amnesia produced by electroconvulsive shock; assay: reversal of electroconvulsive shock-induced amnesia, mice; type: in vivo
Protocol: The modified peptides in accordance with this invention are effective in treating senility, in enhancing memory, or of reversing the effects of electroconvulsive shock-induced amnesia. The effectiveness of these compounds is determined by the test designed to show the compound's ability to reverse amnesia produced by electroconvulsive shock. The test is more fully described in U.S. Pat. No. 4,145,347, issued Mar. 20, 1979, the disclosure of which is herein incorporated by reference. The only deviation in the present instance is that the compounds tested are administered orally, and the duration of the electroconvulsive shock administered is 1.0 seconds.

[5] = test system: amnesia produced by electroconvulsive shock; assay: as above; type: in vivo; remark: listed apart in the source
[6] = test system: pole-climbing avoidance; settings: cited from earlier work

Compound	% Amnesia Reversal Rats ([3]; dose 0.001 mg/kg IM) [%]	Amnesia reversal rating, rats ([3]; dose 0.001 mg/kg IM)	% Amnesia Reversal Rats ([3]; dose 0.010 mg/kg IM) [%]	Amnesia reversal rating, rats ([3]; dose 0.010 mg/kg IM)	% Amnesia Reversal Rats ([3]; dose 0.100 mg/kg IM) [%]	Amnesia reversal rating, rats ([3]; dose 0.100 mg/kg IM)	also measured
1-desamino-8-D-arginine vasopressin [DDAVP]							effect on recall of learned information [1]: Positive effects on recall of learned information; effect on learning and memory [2]: increases in learning and memory
CC(C)C[C@@H](CSCC(=O)O)NC(=O)[C@@H]1CCC(=O)N1C(=O)OCc1ccccc1 (relative stereo) [Z3-KetoProLeu[CH2 S]Gly, [S-(R*,R*)]-Phenylmethyl 5-oxo-2-[[[1-[[(carboxymethyl)thio]methyl]-3-methylbutyl]amino]carbonyl]-1-pyrrolidinecarboxylate]	33	C (25 to 39 percent amnesia reversal (borderline activity=C))	0	N (0 to 25 percent amnesia reversal (inactive=N))	0	N (0 to 25 percent amnesia reversal (inactive=N))	
CC(C)C[C@@H](CNCC(N)=O)NC(=O)[C@@H]1CCCN1C(=O)OCc1ccccc1.Cl (relative stereo) [ZProLeu[CH2 NH]GlyNH2, [S-(R*,R*)]-2-[[[1-[[(2-Amino-2-oxoethyl)-amino]methyl]-3-methylbutyl]amino]-carbonyl]-1-pyrrolidinecarboxylic acid, phenylmethyl ester, monohydrochloride]	43	A (40 percent or more amnesia reversal (active=A))	43	A (40 percent or more amnesia reversal (active=A))	43	A (40 percent or more amnesia reversal (active=A))	
CC(C)C[C@H](NC[C@@H]1CCCN1C(=O)OCc1ccccc1)C(=O)NCC(N)=O (relative stereo) [ZPro[CH2 NH]LeuGlyNH2, [S-(R*,R*)]-2-[[[[1-[(2-Amino-2-oxoethyl)amino]carbonyl]-3-methylbutyl]amino]methyl]-1-pyrrolidinecarboxylic acid, phenylmethyl ester]	11	N (0 to 25 percent amnesia reversal (inactive=N))	0	N (0 to 25 percent amnesia reversal (inactive=N))	0	N (0 to 25 percent amnesia reversal (inactive=N))	% Amnesia Reversal Mice ([4]; dose 1 mg/kg PO): 85%; Amnesia reversal rating, mice ([4]; dose 1 mg/kg PO): A (40 percent or more amnesia reversal (active=A)); % Amnesia Reversal Mice ([4]; dose 10 mg/kg PO): 67%; Amnesia reversal rating, mice ([4]; dose 10 mg/kg PO): A (40 percent or more amnesia reversal (active=A)); % Amnesia Reversal Mice ([4]; dose 100 mg/kg PO): 57%; Amnesia reversal rating, mice ([4]; dose 100 mg/kg PO): A (40 percent or more amnesia reversal (active=A))
Cc1ccc(S(=O)(=O)N2CCCC2CN[C@@H](CC(C)C)C(=O)NCC(N)=O)cc1 (stereo partly drawn) [TosPro[CH2 NH]DLeuGlyNH2, (S)-N^2-[[1-[(4-Methylphenyl)sulfonyl]-2-pyrrolidinyl]methyl]-D-Leucylglycinamide]	0	N (0 to 25 percent amnesia reversal (inactive=N))	0	N (0 to 25 percent amnesia reversal (inactive=N))	34	C (25 to 39 percent amnesia reversal (borderline activity=C))	
CC(C)CC(CSCC(=O)O)NC(=O)C1CC(=O)CN1C(=O)OCc1ccccc1 (stereo not drawn) [Z4-Keto ProLeu[CH2 S]Gly, [S-(R*,R*)]-Phenylmethyl 2-[[[1-[[(carboxymethyl)thio]methyl]-3-methylbutyl]amino]carbonyl]-4-oxo-1-pyrrolidinecarboxylate]	17	N (0 to 25 percent amnesia reversal (inactive=N))	50	A (40 percent or more amnesia reversal (active=A))	83	A (40 percent or more amnesia reversal (active=A))	
CC(C)CC(CSCC(=O)O)NC(=O)C1CCCN1C(=O)OCc1ccccc1 (stereo not drawn) [ZProLeu[CH2 S]Gly, [2S-(R*,R*)]-Phenylmethyl2-[[[1-[[(carboxymethyl)thio]methyl]-3-methylbutyl]amino]carbonyl]-1-pyrrolidinecarboxylate]	57	N (0 to 25 percent amnesia reversal (inactive=N))	57	A (40 percent or more amnesia reversal (active=A))	14	N (0 to 25 percent amnesia reversal (inactive=N))	% Amnesia Reversal Mice ([5]; dose 0.1 mg/kg IM): 69%; Amnesia reversal rating, mice ([5]; dose 0.1 mg/kg IM): A (40 percent or more amnesia reversal (active=A)); % Amnesia Reversal Mice ([5]; dose 1.0 mg/kg IM): 77%; Amnesia reversal rating, mice ([5]; dose 1.0 mg/kg IM): A (40 percent or more amnesia reversal (active=A)); % Amnesia Reversal Mice ([5]; dose 10.0 mg/kg IM): 69%; Amnesia reversal rating, mice ([5]; dose 10.0 mg/kg IM): A (40 percent or more amnesia reversal (active=A))
NC(=O)COCC(Cc1ccccc1)NC(=O)[C@@H]1CCCN1C(=O)OCc1ccccc1 (stereo partly drawn) [ZProPhe[CH2 O]GlyNH2, (2S)-Phenylmethyl 2[[[1-[(2-amino-2-oxoethoxy)methyl]-2-phenylethyl]amino]carbonyl]-1-pyrrolidinecarboxylate]	11	N (0 to 25 percent amnesia reversal (inactive=N))	0	N (0 to 25 percent amnesia reversal (inactive=N))	0	N (0 to 25 percent amnesia reversal (inactive=N))	% Amnesia Reversal Mice ([4]; dose 1 mg/kg PO): 20%; Amnesia reversal rating, mice ([4]; dose 1 mg/kg PO): N (0 to 25 percent amnesia reversal (inactive=N)); % Amnesia Reversal Mice ([4]; dose 10 mg/kg PO): 59%; Amnesia reversal rating, mice ([4]; dose 10 mg/kg PO): A (40 percent or more amnesia reversal (active=A)); % Amnesia Reversal Mice ([4]; dose 100 mg/kg PO): 71%; Amnesia reversal rating, mice ([4]; dose 100 mg/kg PO): A (40 percent or more amnesia reversal (active=A))
NC(=O)CC[C@@H]1NC(=O)[C@H](Cc2ccccc2)NC(=O)[C@H](Cc2ccc(O)cc2)NC(=O)[C@@H](N)CSSC[C@@H](C(=O)N2CCC[C@H]2C(=O)N[C@@H](CCCN=C(N)N)C(=O)NCC(N)=O)NC(=O)[C@H](CC(N)=O)NC1=O [vasopressin]							effect on learning and memory [2]: increases in learning and memory
Pro-Arg-Gly-NH2							activity in the rat pole-climbing avoidance test [6]: active

From patent US4596819A, “Modified tripeptides” (Warner-Lambert Company, priority 1984, dated 1986)
